Measured values from patent publication US9708314B2, “Heterocyclic amide compound” (NISSAN CHEMICAL INDUSTRIES, LTD., priority 2013, dated 2017).

Tests used:
Assay type in all cases: in vivo
[1] = test system: Echinochloa oryzacola Vasing.; test: Test Example 2: herbicidal activity, application during weed generation in submerged conditions; details: Eighteenth Table; application herbicide amount 320 g/ha
Summary of the method: (§1)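 Post-emergence application under submerged conditions: water-diluted emulsion dosed onto the water surface (g/ha) when weeds reach one- to two-leaf stage. Soil flooded to 4 cm; greenhouse 25–30 °C. Herbicidal ratio graded in six classes, 0 (≤5%) to 5 (≥90%), at three weeks.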

Monochoria vaginalis = test: as above; details: Eighteenth Table; application herbicide amount 320 g/ha
Summary of the method: as §1

Scirpus juncoides = test: as above; details: Eighteenth Table; application herbicide amount 320 g/ha
Summary of the method: as §1

[2] = test system: directly sowed Oryza sativa; test: Test Example 3: effect on crop by application to foliage (Wagner pot, water depth 0.1-0.5 cm); details: Nineteenth Table; application herbicide amount 320 g/ha
Summary of the method: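 Scores (0–5) reflect herbicidal ratio three weeks after a foliar spray: 0 is 5% or less, 5 is 90% or more. Plants had grown 14 days in alluvial soil pots in a 25–30 °C greenhouse before treatment with water-diluted emulsion at a set g/ha.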

[3] = test system: Beta vulgaris ssp. vulgaris; test: Test Example 4: effect on crop by application to foliage (diluvial soil, plastic box); details: application to foliage, application herbicide amount 320 g/ha
Summary of the method: (§2)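 Emulsion-formulated compound, diluted to a predetermined g/ha dose, applied by small sprayer to leaves and stems of 14-day-old seedlings grown in sterilized diluvial soil. Effect rated on 0–5 herbicidal-ratio scale three weeks on.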

Brassica campestris L. = test: as above; details: application to foliage, application herbicide amount 320 g/ha
Summary of the method: as §2

Glycine max = test: as above; details: application to foliage, application herbicide amount 320 g/ha
Summary of the method: as §2

Triticum aestivum = test: as above; details: application to foliage, application herbicide amount 320 g/ha
Summary of the method: as §2

[4] = test system: directly sowed Oryza sativa; test: as above; details: application to foliage, application herbicide amount 320 g/ha
Summary of the method: as §2

Cc1nnc(NC(=O)c2ccc(C(F)(F)F)n3c(C[S+](C)[O-])nnc23)o1 (stereo not drawn) [1-036]
A (Echinochloa oryzicola Vasing.) herbicidal ratio grade [1]: 3 (Herbicidal ratio of 40% or more and less than 70%)
C (Monochoria vaginalis) herbicidal ratio grade (Monochoria vaginalis): 4 (Herbicidal ratio of 70% or more and less than 90%)
B (Scirpus juncoides) herbicidal ratio grade (Scirpus juncoides): 2 (Herbicidal ratio of 20% or more and less than 40%)
b (directly sowed Oryza sativa) effect on crop grade [2]: 4 (Herbicidal ratio of 70% or more and less than 90%)
f (Beta vulgaris ssp. vulgaris) effect on crop [3]: 5 (Herbicidal ratio of 90% or more (almost completely withered))
g (Brassica campestris L.) effect on crop (Brassica campestris L.): 5 (Herbicidal ratio of 90% or more (almost completely withered))
c (Glycine max) effect on crop (Glycine max): 3 (Herbicidal ratio of 40% or more and less than 70%)
e (Triticum aestivum) effect on crop (Triticum aestivum): 3 (Herbicidal ratio of 40% or more and less than 70%)
d (directly sowed Oryza sativa) effect on crop [4]: 4 (Herbicidal ratio of 70% or more and less than 90%)

Cc1nnc(NC(=O)c2ccc(C(F)(F)F)n3c(C[S+]([O-])CC(F)(F)F)nnc23)o1 (stereo not drawn) [1-038]
A (Echinochloa oryzicola Vasing.) herbicidal ratio grade [1]: 1 (Herbicidal ratio of 5% or more and less than 20%)
C (Monochoria vaginalis) herbicidal ratio grade (Monochoria vaginalis): 0 (Herbicidal ratio of 5% or less (almost no effect))
B (Scirpus juncoides) herbicidal ratio grade (Scirpus juncoides): 1 (Herbicidal ratio of 5% or more and less than 20%)
b (directly sowed Oryza sativa) effect on crop grade [2]: 2 (Herbicidal ratio of 20% or more and less than 40%)
f (Beta vulgaris ssp. vulgaris) effect on crop [3]: 5 (Herbicidal ratio of 90% or more (almost completely withered))
g (Brassica campestris L.) effect on crop (Brassica campestris L.): 4 (Herbicidal ratio of 70% or more and less than 90%)
c (Glycine max) effect on crop (Glycine max): 0 (Herbicidal ratio of 5% or less (almost no effect))
e (Triticum aestivum) effect on crop (Triticum aestivum): 1 (Herbicidal ratio of 5% or more and less than 20%)
d (directly sowed Oryza sativa) effect on crop [4]: 4 (Herbicidal ratio of 70% or more and less than 90%)

CCOC(=O)Cc1nnc2c(C(=O)Nc3nnc(C)o3)ccc(C(F)(F)F)n12 [1-042]
A (Echinochloa oryzicola Vasing.) herbicidal ratio grade [1]: 1 (Herbicidal ratio of 5% or more and less than 20%)
C (Monochoria vaginalis) herbicidal ratio grade (Monochoria vaginalis): 3 (Herbicidal ratio of 40% or more and less than 70%)
B (Scirpus juncoides) herbicidal ratio grade (Scirpus juncoides): 2 (Herbicidal ratio of 20% or more and less than 40%)
b (directly sowed Oryza sativa) effect on crop grade [2]: 1 (Herbicidal ratio of 5% or more and less than 20%)
f (Beta vulgaris ssp. vulgaris) effect on crop [3]: 5 (Herbicidal ratio of 90% or more (almost completely withered))
g (Brassica campestris L.) effect on crop (Brassica campestris L.): 3 (Herbicidal ratio of 40% or more and less than 70%)
c (Glycine max) effect on crop (Glycine max): 1 (Herbicidal ratio of 5% or more and less than 20%)
e (Triticum aestivum) effect on crop (Triticum aestivum): 0 (Herbicidal ratio of 5% or less (almost no effect))
d (directly sowed Oryza sativa) effect on crop [4]: 3 (Herbicidal ratio of 40% or more and less than 70%)

Cc1ccc(-c2nnc3c(C(=O)Nc4nnc(C)o4)ccc(C(F)(F)F)n23)cc1 [1-043]
A (Echinochloa oryzicola Vasing.) herbicidal ratio grade [1]: 3 (Herbicidal ratio of 40% or more and less than 70%)
C (Monochoria vaginalis) herbicidal ratio grade (Monochoria vaginalis): 3 (Herbicidal ratio of 40% or more and less than 70%)
B (Scirpus juncoides) herbicidal ratio grade (Scirpus juncoides): 3 (Herbicidal ratio of 40% or more and less than 70%)
b (directly sowed Oryza sativa) effect on crop grade [2]: 5 (Herbicidal ratio of 90% or more (almost completely withered))
f (Beta vulgaris ssp. vulgaris) effect on crop [3]: 5 (Herbicidal ratio of 90% or more (almost completely withered))
g (Brassica campestris L.) effect on crop (Brassica campestris L.): 3 (Herbicidal ratio of 40% or more and less than 70%)
c (Glycine max) effect on crop (Glycine max): 2 (Herbicidal ratio of 20% or more and less than 40%)
e (Triticum aestivum) effect on crop (Triticum aestivum): 0 (Herbicidal ratio of 5% or less (almost no effect))
d (directly sowed Oryza sativa) effect on crop [4]: 2 (Herbicidal ratio of 20% or more and less than 40%)

Cc1nnc(NC(=O)c2ccc(C(F)(F)F)n3c(-c4ccc(F)cc4)nnc23)o1 [1-044]
A (Echinochloa oryzicola Vasing.) herbicidal ratio grade [1]: 2 (Herbicidal ratio of 20% or more and less than 40%)
C (Monochoria vaginalis) herbicidal ratio grade (Monochoria vaginalis): 2 (Herbicidal ratio of 20% or more and less than 40%)
B (Scirpus juncoides) herbicidal ratio grade (Scirpus juncoides): 3 (Herbicidal ratio of 40% or more and less than 70%)
b (directly sowed Oryza sativa) effect on crop grade [2]: 3 (Herbicidal ratio of 40% or more and less than 70%)
f (Beta vulgaris ssp. vulgaris) effect on crop [3]: 5 (Herbicidal ratio of 90% or more (almost completely withered))
g (Brassica campestris L.) effect on crop (Brassica campestris L.): 4 (Herbicidal ratio of 70% or more and less than 90%)
c (Glycine max) effect on crop (Glycine max): 0 (Herbicidal ratio of 5% or less (almost no effect))
e (Triticum aestivum) effect on crop (Triticum aestivum): 0 (Herbicidal ratio of 5% or less (almost no effect))
d (directly sowed Oryza sativa) effect on crop [4]: 3 (Herbicidal ratio of 40% or more and less than 70%)

COc1ccccc1-c1nnc2c(C(=O)Nc3nnc(C)o3)ccc(C(F)(F)F)n12 [1-047]
A (Echinochloa oryzicola Vasing.) herbicidal ratio grade [1]: 3 (Herbicidal ratio of 40% or more and less than 70%)
C (Monochoria vaginalis) herbicidal ratio grade (Monochoria vaginalis): 3 (Herbicidal ratio of 40% or more and less than 70%)
B (Scirpus juncoides) herbicidal ratio grade (Scirpus juncoides): 2 (Herbicidal ratio of 20% or more and less than 40%)
b (directly sowed Oryza sativa) effect on crop grade [2]: 3 (Herbicidal ratio of 40% or more and less than 70%)
f (Beta vulgaris ssp. vulgaris) effect on crop [3]: 5 (Herbicidal ratio of 90% or more (almost completely withered))
g (Brassica campestris L.) effect on crop (Brassica campestris L.): 4 (Herbicidal ratio of 70% or more and less than 90%)
c (Glycine max) effect on crop (Glycine max): 1 (Herbicidal ratio of 5% or more and less than 20%)
e (Triticum aestivum) effect on crop (Triticum aestivum): 0 (Herbicidal ratio of 5% or less (almost no effect))
d (directly sowed Oryza sativa) effect on crop [4]: 3 (Herbicidal ratio of 40% or more and less than 70%)

Cc1nnc(NC(=O)c2ccc(C(F)(F)F)n3c(CC(=O)O)nnc23)o1 [1-048]
A (Echinochloa oryzicola Vasing.) herbicidal ratio grade [1]: 0 (Herbicidal ratio of 5% or less (almost no effect))
C (Monochoria vaginalis) herbicidal ratio grade (Monochoria vaginalis): 0 (Herbicidal ratio of 5% or less (almost no effect))
B (Scirpus juncoides) herbicidal ratio grade (Scirpus juncoides): 1 (Herbicidal ratio of 5% or more and less than 20%)
b (directly sowed Oryza sativa) effect on crop grade [2]: 0 (Herbicidal ratio of 5% or less (almost no effect))
f (Beta vulgaris ssp. vulgaris) effect on crop [3]: 5 (Herbicidal ratio of 90% or more (almost completely withered))
g (Brassica campestris L.) effect on crop (Brassica campestris L.): 4 (Herbicidal ratio of 70% or more and less than 90%)
c (Glycine max) effect on crop (Glycine max): 0 (Herbicidal ratio of 5% or less (almost no effect))
e (Triticum aestivum) effect on crop (Triticum aestivum): 1 (Herbicidal ratio of 5% or more and less than 20%)
d (directly sowed Oryza sativa) effect on crop [4]: 4 (Herbicidal ratio of 70% or more and less than 90%)

Cc1nnc(NC(=O)c2ccc(C(F)(F)F)n3c(CC(=O)OC(C)C)nnc23)o1 [1-049]
A (Echinochloa oryzicola Vasing.) herbicidal ratio grade [1]: 4 (Herbicidal ratio of 70% or more and less than 90%)
C (Monochoria vaginalis) herbicidal ratio grade (Monochoria vaginalis): 2 (Herbicidal ratio of 20% or more and less than 40%)
B (Scirpus juncoides) herbicidal ratio grade (Scirpus juncoides): 2 (Herbicidal ratio of 20% or more and less than 40%)
b (directly sowed Oryza sativa) effect on crop grade [2]: 1 (Herbicidal ratio of 5% or more and less than 20%)
f (Beta vulgaris ssp. vulgaris) effect on crop [3]: 5 (Herbicidal ratio of 90% or more (almost completely withered))
g (Brassica campestris L.) effect on crop (Brassica campestris L.): 4 (Herbicidal ratio of 70% or more and less than 90%)
c (Glycine max) effect on crop (Glycine max): 4 (Herbicidal ratio of 70% or more and less than 90%)
e (Triticum aestivum) effect on crop (Triticum aestivum): 1 (Herbicidal ratio of 5% or more and less than 20%)
d (directly sowed Oryza sativa) effect on crop [4]: 3 (Herbicidal ratio of 40% or more and less than 70%)

CC(C)c1nnc2c(C(=O)Nc3nnco3)ccc(C(F)(F)F)n12 [1-050]
A (Echinochloa oryzicola Vasing.) herbicidal ratio grade [1]: 5 (Herbicidal ratio of 90% or more (almost completely withered))
C (Monochoria vaginalis) herbicidal ratio grade (Monochoria vaginalis): 3 (Herbicidal ratio of 40% or more and less than 70%)
B (Scirpus juncoides) herbicidal ratio grade (Scirpus juncoides): 4 (Herbicidal ratio of 70% or more and less than 90%)
b (directly sowed Oryza sativa) effect on crop grade [2]: 1 (Herbicidal ratio of 5% or more and less than 20%)
f (Beta vulgaris ssp. vulgaris) effect on crop [3]: 5 (Herbicidal ratio of 90% or more (almost completely withered))
g (Brassica campestris L.) effect on crop (Brassica campestris L.): 5 (Herbicidal ratio of 90% or more (almost completely withered))
c (Glycine max) effect on crop (Glycine max): 3 (Herbicidal ratio of 40% or more and less than 70%)
e (Triticum aestivum) effect on crop (Triticum aestivum): 3 (Herbicidal ratio of 40% or more and less than 70%)
d (directly sowed Oryza sativa) effect on crop [4]: 4 (Herbicidal ratio of 70% or more and less than 90%)

CC(C)c1nnc2c(C(=O)Nc3nnc(C4CC4)o3)ccc(C(F)(F)F)n12 [1-051]
A (Echinochloa oryzicola Vasing.) herbicidal ratio grade [1]: 4 (Herbicidal ratio of 70% or more and less than 90%)
C (Monochoria vaginalis) herbicidal ratio grade (Monochoria vaginalis): 4 (Herbicidal ratio of 70% or more and less than 90%)
B (Scirpus juncoides) herbicidal ratio grade (Scirpus juncoides): 3 (Herbicidal ratio of 40% or more and less than 70%)
b (directly sowed Oryza sativa) effect on crop grade [2]: 0 (Herbicidal ratio of 5% or less (almost no effect))
f (Beta vulgaris ssp. vulgaris) effect on crop [3]: 3 (Herbicidal ratio of 40% or more and less than 70%)
g (Brassica campestris L.) effect on crop (Brassica campestris L.): 1 (Herbicidal ratio of 5% or more and less than 20%)
c (Glycine max) effect on crop (Glycine max): 0 (Herbicidal ratio of 5% or less (almost no effect))
e (Triticum aestivum) effect on crop (Triticum aestivum): 1 (Herbicidal ratio of 5% or more and less than 20%)
d (directly sowed Oryza sativa) effect on crop [4]: 1 (Herbicidal ratio of 5% or more and less than 20%)
